{"source": "ChEMBL document CHEMBL1201862", "about": "“PubChem BioAssay data set” (2004)", "test_in_all_cases": "NCI-60 cell line screen, 48 h", "key": {"UACC-62": {"tested_on": "UACC-62"}, "DLD-1": {"tested_on": "DLD-1"}, "MCF7": {"tested_on": "MCF7"}, "M19-MEL": {"tested_on": "M19-MEL"}, "DMS-114": {"tested_on": "DMS-114"}, "SN12C": {"tested_on": "SN12C"}, "HT-29": {"tested_on": "HT-29"}, "HCT-116": {"tested_on": "HCT-116"}, "RPMI-8226": {"tested_on": "RPMI-8226"}, "EKVX": {"tested_on": "EKVX"}, "SK-OV-3": {"tested_on": "SK-OV-3"}, "NCI-H226": {"tested_on": "NCI-H226"}, "COLO 205": {"tested_on": "COLO 205"}, "RXF 393": {"tested_on": "RXF 393"}, "CAKI-1": {"tested_on": "CAKI-1"}, "OVCAR-4": {"tested_on": "OVCAR-4"}, "OVCAR-8": {"tested_on": "OVCAR-8"}, "OVCAR-3": {"tested_on": "OVCAR-3"}, "KM12": {"tested_on": "KM12"}, "XF498": {"tested_on": "XF498"}, "NCI/ADR-RES": {"tested_on": "NCI/ADR-RES"}, "A549": {"tested_on": "A549"}, "SK-MEL-2": {"tested_on": "SK-MEL-2"}, "NCI-H23": {"tested_on": "NCI-H23"}, "HCT-15": {"tested_on": "HCT-15"}, "SNB-19": {"tested_on": "SNB-19"}, "HL-60": {"tested_on": "HL-60"}, "SNB-75": {"tested_on": "SNB-75"}, "SK-MEL-5": {"tested_on": "SK-MEL-5"}, "HOP-18": {"tested_on": "HOP-18"}, "A498": {"tested_on": "A498"}, "LOX IMVI": {"tested_on": "LOX IMVI"}, "UACC-257": {"tested_on": "UACC-257"}, "OVCAR-5": {"tested_on": "OVCAR-5"}, "DMS-273": {"tested_on": "DMS-273"}, "SF-268": {"tested_on": "SF-268"}, "NCI-H522": {"tested_on": "NCI-H522"}, "SNB-78": {"tested_on": "SNB-78"}, "SW-620": {"tested_on": "SW-620"}, "U-251": {"tested_on": "U-251"}, "MOLT-4": {"tested_on": "MOLT-4"}, "NCI-H460": {"tested_on": "NCI-H460"}, "SK-MEL-28": {"tested_on": "SK-MEL-28"}, "IGROV-1": {"tested_on": "IGROV-1"}, "SF-539": {"tested_on": "SF-539"}, "HOP-92": {"tested_on": "HOP-92"}, "KM-20L2": {"tested_on": "KM-20L2"}, "HOP-62": {"tested_on": "HOP-62"}, "Malme-3M": {"tested_on": "Malme-3M"}, "UO-31": {"tested_on": "UO-31"}, "SF-295": {"tested_on": "SF-295"}, "HCC 2998": {"tested_on": "HCC 2998"}, "K562": {"tested_on": "K562"}, "CCRF-CEM": {"tested_on": "CCRF-CEM"}}, "note": "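96-well plates; 48 h exposure; 5 concentrations. Endpoints by linear interpolation between flanking doses. Not reached: highest tested concentration assigned. GI50 is the concentration that inhibits growth by half.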 Active and inactive are the calls of the source. Rule as the data show it: active = GI50 up to about 1.1 µM and inactive = higher."}
{"smiles": "CC(NCCS(=O)(=O)O)C(=O)O", "note": "(centres undefined)", "values": [{"measurement": "GI50", "setting": "UACC-62", "result": "> 100 µM (inactive)"}, {"measurement": "GI50", "setting": "DLD-1", "result": "> 100 µM (inactive)"}, {"measurement": "GI50", "setting": "MCF7", "result": "> 100 µM (inactive)"}, {"measurement": "GI50", "setting": "M19-MEL", "result": "> 100 µM (inactive)"}, {"measurement": "GI50", "setting": "DMS-114", "result": "> 100 µM (inactive)"}, {"measurement": "GI50", "setting": "SN12C", "result": "> 100 µM (inactive)"}, {"measurement": "GI50", "setting": "HT-29", "result": "> 100 µM (inactive)"}, {"measurement": "GI50", "setting": "HCT-116", "result": "> 100 µM (inactive)"}, {"measurement": "GI50", "setting": "RPMI-8226", "result": "> 100 µM (inactive)"}, {"measurement": "GI50", "setting": "EKVX", "result": "> 100 µM (inactive)"}, {"measurement": "GI50", "setting": "SK-OV-3", "result": "> 100 µM (inactive)"}, {"measurement": "GI50", "setting": "NCI-H226", "result": "> 100 µM (inactive)"}, {"measurement": "GI50", "setting": "COLO 205", "result": "> 100 µM (inactive)"}, {"measurement": "GI50", "setting": "RXF 393", "result": "> 100 µM (inactive)"}, {"measurement": "GI50", "setting": "CAKI-1", "result": "> 100 µM (inactive)"}, {"measurement": "GI50", "setting": "OVCAR-4", "result": "> 100 µM (inactive)"}, {"measurement": "GI50", "setting": "OVCAR-8", "result": "> 100 µM (inactive)"}, {"measurement": "GI50", "setting": "OVCAR-3", "result": "> 45.6 µM (inactive)"}, {"measurement": "GI50", "setting": "KM12", "result": "> 100 µM (inactive)"}, {"measurement": "GI50", "setting": "XF498", "result": "> 100 µM (inactive)"}, {"measurement": "GI50", "setting": "NCI/ADR-RES", "result": "> 100 µM (inactive)"}, {"measurement": "GI50", "setting": "A549", "result": "> 100 µM (inactive)"}, {"measurement": "GI50", "setting": "SK-MEL-2", "result": "> 100 µM (inactive)"}, {"measurement": "GI50", "setting": "NCI-H23", "result": "> 100 µM (inactive)"}, {"measurement": "GI50", "setting": "HCT-15", "result": "> 100", "unit": "µM"}, {"measurement": "GI50", "setting": "SNB-19", "result": "> 100 µM (inactive)"}, {"measurement": "GI50", "setting": "HL-60", "result": "> 100 µM (inactive)"}, {"measurement": "GI50", "setting": "SNB-75", "result": "> 100 µM (inactive)"}, {"measurement": "GI50", "setting": "SK-MEL-5", "result": "> 100 µM (inactive)"}, {"measurement": "GI50", "setting": "HOP-18", "result": "> 100 µM (inactive)"}, {"measurement": "GI50", "setting": "A498", "result": "> 77.3 µM (inactive)"}, {"measurement": "GI50", "setting": "LOX IMVI", "result": "> 100 µM (inactive)"}, {"measurement": "GI50", "setting": "UACC-257", "result": "> 100 µM (inactive)"}, {"measurement": "GI50", "setting": "OVCAR-5", "result": "> 100 µM (inactive)"}, {"measurement": "GI50", "setting": "DMS-273", "result": "> 100 µM (inactive)"}, {"measurement": "GI50", "setting": "SF-268", "result": "> 100 µM (inactive)"}, {"measurement": "GI50", "setting": "NCI-H522", "result": "> 100 µM (inactive)"}, {"measurement": "GI50", "setting": "SNB-78", "result": "99.8 µM (inactive)"}, {"measurement": "GI50", "setting": "SW-620", "result": "> 100 µM (inactive)"}, {"measurement": "GI50", "setting": "U-251", "result": "> 100 µM (inactive)"}, {"measurement": "GI50", "setting": "MOLT-4", "result": "> 100 µM (inactive)"}, {"measurement": "GI50", "setting": "NCI-H460", "result": "> 100 µM (inactive)"}, {"measurement": "GI50", "setting": "SK-MEL-28", "result": "> 100 µM (inactive)"}, {"measurement": "GI50", "setting": "IGROV-1", "result": "> 100 µM (inactive)"}, {"measurement": "GI50", "setting": "SF-539", "result": "> 100 µM (inactive)"}, {"measurement": "GI50", "setting": "HOP-92", "result": "> 100 µM (inactive)"}, {"measurement": "GI50", "setting": "KM-20L2", "result": "> 100 µM (inactive)"}, {"measurement": "GI50", "setting": "HOP-62", "result": "> 100 µM (inactive)"}, {"measurement": "GI50", "setting": "Malme-3M", "result": "> 100 µM (inactive)"}, {"measurement": "GI50", "setting": "UO-31", "result": "> 100 µM (inactive)"}, {"measurement": "GI50", "setting": "SF-295", "result": "> 100 µM (inactive)"}, {"measurement": "GI50", "setting": "HCC 2998", "result": "> 100 µM (inactive)"}, {"measurement": "GI50", "setting": "K562", "result": "> 100 µM (inactive)"}, {"measurement": "GI50", "setting": "CCRF-CEM", "result": "> 100 µM (inactive)"}]}
